Measurements from paper PMC9486808 (ACS Chemical Biology, 2022).
Where “and” joins values, the source holds several entries; their conditions need not be identical. Equal values may be shown once. Starred links: 1 amine or outer side, 2 acyl side, 3 side chain; linkers in the order of their positions; H or OH if unused. Positions of bridges follow the written chain, without caps; N, C: chain ends. Non-standard residues stand in square brackets, D forms with d. Residues, ends and D or L forms follow the SMILES beside them. Groups on a side chain read outwards from the residue. *: point of attachment. X1 = O=C([C@H](CCn1nnc2c1-c1ccccc1CN([*:3])c1ccccc1-2)N[*:1])[*:2]; 6FAM = O=C1OC2(c3ccc(O)cc3Oc3cc(O)ccc32)c2cc(C(=O)*)ccc21; AEEA = NCCOCCOCC(=O)O; Ahx = NCCCCCC(=O)O

Tests used:
[1] = target: H1 ectodomain (Influenza A virus, UniProt C3W5S1); experiment: biochemical; assay type: binding, Influenza A virus A/California/04/2009 (H1N1)
[2] = system: H1N1pdm09 (A/Netherlands/602/2009)
[3] = in vitro; conditions: HeLa R19 cells and MDCKI cells
[4] = system: H1N1pdm09 (A/Netherlands/602/2009); assay type: cell-based, Influenza A virus
[5] = system: H1N1pr8 (A/PR8/8/34/Mount Sinai); assay type: cell-based, Influenza A virus
[6] = system: H5N1 virus carrying H5 HA of A/duck/Hunan/795/2002 in the H1N1pr8 genetic background; conditions: 16 h
[7] = target: H1 ectodomain of A/California/04/2009 (H1N1) (Influenza A virus, UniProt C3W5S1); assay type: binding, Influenza A virus A/California/04/2009 (H1N1)
[8] = target: H1 HA (Influenza A virus, UniProt C3W5S1); assay type: binding, Influenza A virus A/California/04/2009 (H1N1)
[9] = system: H3N1 virus carrying H3 HA of A/Bilthoven/1761/76 (H3N2) in the H1N1pr8 background; assay type: cell-based, Influenza A virus

Chain of H1 ectodomain of A/California/04/2009 (H1N1) (C3W5S1 entry or part of it, added parts left off): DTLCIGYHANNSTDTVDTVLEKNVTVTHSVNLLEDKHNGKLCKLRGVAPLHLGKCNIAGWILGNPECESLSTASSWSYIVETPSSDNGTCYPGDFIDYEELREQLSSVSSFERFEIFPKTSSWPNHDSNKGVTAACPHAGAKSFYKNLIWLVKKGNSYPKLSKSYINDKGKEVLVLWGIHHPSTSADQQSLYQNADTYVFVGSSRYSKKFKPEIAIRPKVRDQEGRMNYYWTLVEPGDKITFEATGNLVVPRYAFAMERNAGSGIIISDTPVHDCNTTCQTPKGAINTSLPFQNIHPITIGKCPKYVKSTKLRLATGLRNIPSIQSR
Chain of H1 ectodomain (C3W5S1 entry or part of it, added parts left off): as above

CC(C)C[C@H](NC(=O)[C@@H]1CSCC(=O)N[C@@H](Cc2ccc(O)cc2)C(=O)N[C@@H](Cc2c[nH]c3ccccc23)C(=O)N[C@@H](Cc2c[nH]cn2)C(=O)N[C@@H](CCCCN)C(=O)N[C@@H](CC(N)=O)C(=O)N[C@@H](CCCCN)C(=O)N[C@@H](Cc2ccc(O)cc2)C(=O)N[C@@H](C(C)C)C(=O)N[C@@H](CC(C)C)C(=O)N[C@@H]([C@@H](C)O)C(=O)N[C@@H](Cc2ccc(O)cc2)C(=O)N[C@@H](CO)C(=O)N1)C(=O)N[C@@H](Cc1ccccc1)C(=O)N[C@@H](C)C(=O)N[C@@H](C)C(=O)NCCOCCOCC(=O)N[C@@H](CCn1nnc2c1-c1ccccc1CN(C(=O)CCCCCNC(=O)c1ccc3c(c1)C1(OC3=O)c3ccc(O)cc3Oc3cc(O)ccc31)c1ccccc1-2)C(=O)NCC(=O)N[C@@H](CC(=O)O)C(=O)N[C@@H](Cc1ccc(O)cc1)C(=O)N[C@@H](CCCCN)C(=O)N[C@@H](CC(=O)O)C(=O)N[C@@H](CC(=O)O)C(=O)N[C@@H](CC(=O)O)C(=O)N[C@@H](CC(=O)O)C(=O)N[C@@H](CCCCN)C(=O)NCC(N)=O [L2FAM] ({CH2CO}-YWHKNKYVLTYSCLFAA[AEEA][X1]([Ahx-6FAM])GDYKDDDDKG-NH2; thioether N-13)
Hillslope [1]: 0.91 and 0.70

CC(C)C[C@H](NC(=O)[C@@H]1CSCC(=O)N[C@@H](Cc2ccc(O)cc2)C(=O)N[C@@H](Cc2c[nH]c3ccccc23)C(=O)N[C@@H](Cc2c[nH]cn2)C(=O)N[C@@H](CCCCN)C(=O)N[C@@H](CC(N)=O)C(=O)N[C@@H](CCCCN)C(=O)N[C@@H](Cc2ccc(O)cc2)C(=O)N[C@@H](C(C)C)C(=O)N[C@@H](CC(C)C)C(=O)N[C@@H]([C@@H](C)O)C(=O)N[C@@H](Cc2ccc(O)cc2)C(=O)N[C@@H](CO)C(=O)N1)C(=O)N[C@@H](Cc1ccccc1)C(=O)N[C@@H](C)C(=O)N[C@@H](C)C(=O)NCC(N)=O [L2] ({CH2CO}-YWHKNKYVLTYSCLFAAG-NH2; thioether N-13)
Inhibition of infection at a single concentration [2]: strong inhibition of infection
IC50 ([2]; 16 h): 69 ± 8.3 nM
CC50 at 72 h [3]: > 5000 nM
Kd [1]: 2.4 nM
Inhibition of infection (infected cells relative to untreated control) [4]: strongly inhibited infection
Inhibition of infection (infected cells relative to untreated control) [5]: strongly inhibited infection
IC50 [6]: 1050 ± 300 nM
Binding region in the HA stem (HDX-MS) [7]: aa 369–387
ΔTm (°C), purified peptide [8]: 1 °C
Inhibition of infection (infected cells relative to untreated control) [9]: fell short of inhibiting

CC(C)[C@@H]1NC(=O)[C@H](Cc2c[nH]c3ccccc23)NC(=O)[C@H](CCCNC(=N)N)NC(=O)[C@H](Cc2ccc(O)cc2)NC(=O)CSC[C@@H](C(=O)NCCOCCOCC(=O)N[C@@H](CCn2nnc3c2-c2ccccc2CN(C(=O)CCCCCNC(=O)c2ccc4c(c2)C2(OC4=O)c4ccc(O)cc4Oc4cc(O)ccc42)c2ccccc2-3)C(=O)NCC(=O)N[C@@H](CC(=O)O)C(=O)N[C@@H](Cc2ccc(O)cc2)C(=O)N[C@@H](CCCCN)C(=O)N[C@@H](CC(=O)O)C(=O)N[C@@H](CC(=O)O)C(=O)N[C@@H](CC(=O)O)C(=O)N[C@@H](CC(=O)O)C(=O)N[C@@H](CCCCN)C(=O)NCC(N)=O)NC(=O)[C@H](C(C)C)NC(=O)[C@H](C(C)C)NC(=O)[C@H](Cc2ccccc2)NC(=O)[C@H](Cc2ccc(O)cc2)NC(=O)[C@@H]2CCCN2C(=O)[C@H](CCC(=O)O)NC(=O)[C@H](CO)NC(=O)[C@H](Cc2ccccc2)NC(=O)[C@H](Cc2ccccc2)NC(=O)[C@H](CO)NC(=O)[C@H]([C@@H](C)O)NC(=O)[C@H](Cc2c[nH]c3ccccc23)NC1=O [L4FAM] ({CH2CO}-YRWVWTSFFSEPYFVVC[AEEA][X1]([Ahx-6FAM])GDYKDDDDKG-NH2; thioether N-17)
Hillslope [1]: 0.96 and 0.76

CC[C@H](C)[C@@H]1NC(=O)[C@H](CCCCN)NC(=O)[C@H](CO)NC(=O)[C@H](Cc2c[nH]c3ccccc23)NC(=O)[C@H](Cc2ccc(O)cc2)NC(=O)[C@H]([C@@H](C)CC)NC(=O)[C@H](CCCCN)NC(=O)[C@H](CC(C)C)NC(=O)[C@@H](Cc2ccc(O)cc2)NC(=O)CSC[C@@H](C(=O)NCCOCCOCC(=O)N[C@@H](CCn2nnc3c2-c2ccccc2CN(C(=O)CCCCCNC(=O)c2ccc4c(c2)C2(OC4=O)c4ccc(O)cc4Oc4cc(O)ccc42)c2ccccc2-3)C(=O)NCC(=O)N[C@@H](CC(=O)O)C(=O)N[C@@H](Cc2ccc(O)cc2)C(=O)N[C@@H](CCCCN)C(=O)N[C@@H](CC(=O)O)C(=O)N[C@@H](CC(=O)O)C(=O)N[C@@H](CC(=O)O)C(=O)N[C@@H](CC(=O)O)C(=O)N[C@@H](CCCCN)C(=O)NCC(N)=O)NC(=O)[C@H](Cc2c[nH]c3ccccc23)NC(=O)[C@H](CCC(=O)O)NC(=O)[C@H](CO)NC(=O)[C@H](C(C)C)NC(=O)[C@H](CC(C)C)NC(=O)CNC(=O)[C@H](Cc2c[nH]cn2)NC1=O [S3FAM] ({CH2CO}-[dY]LKIYWSKIHGLVSEWC[AEEA][X1]([Ahx-6FAM])GDYKDDDDKG-NH2; thioether N-17)
Hillslope [1]: 1.02 and 0.94

CC(C)C[C@@H]1NC(=O)[C@H](C(C)C)NC(=O)[C@@H](Cc2ccc(O)cc2)NC(=O)CSC[C@@H](C(=O)NCCOCCOCC(=O)N[C@@H](CCn2nnc3c2-c2ccccc2CN(C(=O)CCCCCNC(=O)c2ccc4c(c2)C2(OC4=O)c4ccc(O)cc4Oc4cc(O)ccc42)c2ccccc2-3)C(=O)NCC(=O)N[C@@H](CC(=O)O)C(=O)N[C@@H](Cc2ccc(O)cc2)C(=O)N[C@@H](CCCCN)C(=O)N[C@@H](CC(=O)O)C(=O)N[C@@H](CC(=O)O)C(=O)N[C@@H](CC(=O)O)C(=O)N[C@@H](CC(=O)O)C(=O)N[C@@H](CCCCN)C(=O)NCC(N)=O)NC(=O)[C@H](C(C)C)NC(=O)[C@H](Cc2c[nH]c3ccccc23)NC(=O)[C@H](Cc2c[nH]cn2)NC(=O)[C@H]([C@@H](C)O)NC(=O)[C@H](C)NC(=O)[C@H](CC(C)C)NC(=O)[C@H]([C@@H](C)O)NC(=O)CNC(=O)[C@H](Cc2c[nH]cn2)NC(=O)[C@H](CC(=O)O)NC(=O)[C@H](Cc2c[nH]c3ccccc23)NC(=O)[C@H](CCCNC(=N)N)NC(=O)[C@H](Cc2ccccc2)NC1=O [S5FAM] ({CH2CO}-[dY]VLFRWDHGTLATHWVC[AEEA][X1]([Ahx-6FAM])GDYKDDDDKG-NH2; thioether N-17)
Hillslope [1]: 0.97 and 0.86

Cyclo(Ac-YITRFTPWPKLYPVWDC)G-NH2 (Ac-YITRFTPWPKLYPVWDCG-NH2; bridge N-17; also: cyclized, linkage type not given here) [L1]
Inhibition of infection at a single concentration [2]: strong inhibition of infection
ΔTm (°C), purified peptide [8]: 3.8 °C

Cyclo(Ac-YRFLWSSFSSQPSWVHC)G-NH2 [B5]
ΔTm (°C), crude peptide [8]: 1.4 °C

Cyclo(Ac-YSNNRNWLPHDWQVLYC)G-NH2 [B6]
ΔTm (°C), crude peptide [8]: 1.6 °C

Cyclo(Ac-YSYFDVNTIFWFSPFC)CG-NH2 [S9]
ΔTm (°C), crude peptide [8]: 0.0 °C

Cyclo(Ac-YVQIFDRYGIYSGKWSC)G-NH2 [B8]
ΔTm (°C), crude peptide [8]: 1.0 °C

Cyclo(Ac-YYKALWINATFYQSLVC)G-NH2 [R5]
ΔTm (°C), crude peptide [8]: 1.2 °C

Cyclo(Ac-YYSWFEATGRFRAIFSC)G-NH2 [R4]
ΔTm (°C), crude peptide [8]: 1.4 °C

Cyclo(Ac-yAFWIRWTNHYRSGFTC)G-NH2 [B4]
Inhibition of infection at a single concentration [2]: strong inhibition of infection
ΔTm (°C), crude peptide [8]: 2.0 °C

Cyclo(Ac-yFLC)TKWNYGRWYLFYCG-NH2 [R1]
ΔTm (°C), crude peptide [8]: 1.4 °C

Cyclo(Ac-yFVNWYWHGEKLFYRYC)G-NH2 [R2]
ΔTm (°C), crude peptide [8]: 2.2 °C

Cyclo(Ac-yIRLFWINGNLVSEWNC)G-NH2 [S2]
Inhibition of infection at a single concentration [2]: strong inhibition of infection
Binding region in the HA stem (HDX-MS) [7]: aa 369–387
ΔTm (°C), crude peptide [8]: 4.4 °C

Cyclo(Ac-yIVLAWKGHYLESRWTC)G-NH2 [S8]
ΔTm (°C), crude peptide [8]: 1.6 °C

Cyclo(Ac-yLIWPSFNQNAKIIFPC)G-NH2 [B9]
ΔTm (°C), crude peptide [8]: 3.6 °C

Cyclo(Ac-yRQWFYLGKYYC)TWSCCG-NH2 [S4]
ΔTm (°C), crude peptide [8]: 0.0 °C

Cyclo(Ac-yRVFNISWDGEYRSWWC)G-NH2 [B3]
ΔTm (°C), crude peptide [8]: 0.4 °C

Cyclo(Ac-ySYFIWANFQTEPYFVC)G-NH2 [B2]
Inhibition of infection at a single concentration [2]: strong inhibition of infection
Binding region in the HA stem (HDX-MS) [7]: aa 369–387
ΔTm (°C), crude peptide [8]: 0.6 °C

Cyclo(Ac-yTYYVLLQRWPPVWAPC)G-NH2 [B1]
Inhibition of infection at a single concentration [2]: strong inhibition of infection
Binding region in the HA stem (HDX-MS) [7]: aa 369–387
ΔTm (°C), crude peptide [8]: 2.0 °C

Cyclo(Ac-yVIAIRPFSQLCWRWVC)G-NH2 [S7]
ΔTm (°C), crude peptide [8]: 0.4 °C

Cyclo(Ac-yVKIVWFEGTLNTTWFC)G-NH2 [S6]
ΔTm (°C), crude peptide [8]: 1.6 °C
